Values joined by “and” are separate entries in the source; they are usually repeats but may differ in a detail not shown here. Equal values may be shown once. “Also recorded” adds a separate entry of the source. Where a name gives a salt, the structure may show the parent alone. Read-outs that look alike come from different tables or passages of the source.
Columns and labels:
[1] = Rat 28-day GLP repeat dose PO study (toxicokinetics); type: in vivo; details: rat, in vivo, po; for CL/F / Cmax / Vd/F / half-life / Tmax / AUC / AUC(0-inf): male; for Cmax: read-out: Cmax; for half-life: read-out: t1/2 (converted); for Tmax: read-out: tmax
Experimental: The vehicle was 0.5% HPMC. There were 15 rats/sex in the control and high dose groups (5/sex for a 14-day recovery period) while the low and mid doses consisted of 10 rats/sex. Satellite groups of rats/sex/group for toxicokinetics were included.
Rats in Group 1 (Vehicle Control) were bled once at approximately 1 hour post-dose on those days.

[2] = Metabolic stability in hepatocytes; type: in vitro ADME
Text: Further metabolism work in additional species will be undertaken.

[3] = Rat pharmacokinetics after single PO dose; details: for Compound 1 Concentration in rat plasma: 100 mg/kg single PO, individual animals
Experimental: In both assays, a deuterated (Compound 1-d4) internal standard was used.
The objective of this non-GLP study was to determine the pharmacokinetics of Compound 1 after a single oral (gavage) dose in rats, and to determine if Compound 1 undergoes epimerization in the rat. Compound 1 was administered to CD® IGS [Crl:CD(SD)] (Sprague Dawley) rats (5/sex/group) as a single oral gavage dose of 100 mg/kg in a vehicle of 0.5% aqueous HPMC. Rats were dosed at a dose volume of 10 mL/kg body weight.

[4] = 500 mg/kg, Day 14, M, 500 mg/kg PO
[5] = 500 mg/kg, Day 28, M, 500 mg/kg PO
[6] = 1000 mg/kg, Day 1, M, 1000 mg/kg PO
[7] = 1000 mg/kg, Day 14, M, 1000 mg/kg PO
[8] = 1000 mg/kg, Day 28, M, 1000 mg/kg PO
[9] = 2000 mg/kg, Day 1, M, 2000 mg/kg PO
[10] = 2000 mg/kg, Day 14, M, 2000 mg/kg PO
[11] = 2000 mg/kg, Day 28, M, 2000 mg/kg PO
[12] = female, Sprague Dawley (CD IGS, Crl:CD(SD)), rat, plasma, po, 100 mg/kg
[13] = male, Sprague Dawley, rat, plasma, po, 100 mg/kg

## CC1(C)SC(Nc2ccccc2O)=N[C@@H]1C(=O)O [Compound 1, (R)-2-(2-hydroxyphenylamino)-5,5-dimethyl-4,5-dihydrothiazole-4-carboxylic acid mono-hydrochloride]
[1]; 500 mg/kg, Day 14, M, 500 mg/kg PO, read-out: CL/F (CLss/F) (converted)
  CL/F: 34.2 mL/min/kg
[1]; [4]
  Cmax: 45800 ng/mL
  half-life: 6.27 h
  Tmax: 1 h
[1]; 500 mg/kg, Day 14, M, 500 mg/kg PO, read-out: V/F (Vss/F)
  Vd/F: 18.5 L/kg
[1]; [5]
  AUC: 305 µg·h/mL
  AUC(0-inf): 333 µg·h/mL
  Cmax: 48600 ng/mL
  half-life: 6.9 h
  Tmax: 1 h
[1]; 500 mg/kg, Day 28, M, 500 mg/kg PO, read-out: CL/F (CLss/F) (converted)
  CL/F: 27.3 mL/min/kg
[1]; 500 mg/kg, Day 28, M, 500 mg/kg PO, read-out: V/F (Vss/F)
  Vd/F: 16.4 L/kg
[1]; 1000 mg/kg
  CL/F: 56.8 mL/min/kg
[1]; [6]
  AUC: 456 µg·h/mL
  AUC(0-inf): 460 µg·h/mL
  Cmax: 52700 ng/mL
  half-life: 3.46 h
  Tmax: 1 h
[1]; 1000 mg/kg, Day 1, M, 1000 mg/kg PO, read-out: CL/F (CLz/F) (converted)
  CL/F: 36.2 mL/min/kg
[1]; 1000 mg/kg, Day 1, M, 1000 mg/kg PO, read-out: V/F (Vz/F)
  Vd/F: 10.9 L/kg
[1]; [7]
  AUC: 293 µg·h/mL
  AUC(0-inf): 296 µg·h/mL
  Cmax: 51900 ng/mL
  half-life: 3.68 h
  Tmax: 1 h
[1]; 1000 mg/kg, Day 14, M, 1000 mg/kg PO, read-out: V/F (Vss/F)
  Vd/F: 18.1 L/kg
[1]; [8]
  AUC: 334 µg·h/mL
  AUC(0-inf): 337 µg·h/mL
  Cmax: 47900 ng/mL
  half-life: 3.31 h
[1]; 1000 mg/kg, Day 28, M, 1000 mg/kg PO, read-out: CL/F (CLss/F) (converted)
  CL/F: 49.8 mL/min/kg
[1]; 1000 mg/kg, Day 28, M, 1000 mg/kg PO, read-out: V/F (Vss/F)
  Vd/F: 14.3 L/kg
[1]; 2000 mg/kg
  CL/F: 47.7 mL/min/kg
  t1/2: 8 05 hr
[1]; [9]
  AUC: 768 µg·h/mL
  AUC(0-inf): 771 µg·h/mL
  Cmax: 83100 ng/mL
  half-life: 2.81 h
[1]; 2000 mg/kg, Day 1, M, 2000 mg/kg PO, read-out: CL/F (CLz/F) (converted)
  CL/F: 43.2 mL/min/kg
[1]; 2000 mg/kg, Day 1, M, 2000 mg/kg PO, read-out: V/F (Vz/F)
  Vd/F: 10.5 L/kg
[1]; [10]
  AUC: 701 µg·h/mL
  AUC(0-inf): 709 µg·h/mL
  Cmax: 75600 ng/mL
  half-life: 3.66 h
  Tmax: 1 h
[1]; 2000 mg/kg, Day 14, M, 2000 mg/kg PO, read-out: V/F (Vss/F)
  Vd/F: 15.1 L/kg
[1]; [11]
  AUC: 724 µg·h/mL
  AUC(0-inf): 731 µg·h/mL
  Cmax: 83600 ng/mL
  half-life: 3.53 h
[1]; 2000 mg/kg, Day 28, M, 2000 mg/kg PO, read-out: CL/F (CLss/F) (converted)
  CL/F: 46 mL/min/kg
[1]; 2000 mg/kg, Day 28, M, 2000 mg/kg PO, read-out: V/F (Vss/F)
  Vd/F: 14.1 L/kg
[2]; dog, mono-hydrochloride
  stability in hepatocytes: stable; also recorded: showed metabolic stability
[2]; human, mono-hydrochloride
  stability in hepatocytes: stable; also recorded: showed metabolic stability
[2]; monkey
  stability in hepatocytes: showed metabolic stability
[2]; rat, mono-hydrochloride
  stability in hepatocytes: stable; also recorded: showed metabolic stability
[3]; Female, 0.5 h post-dose, mono-hydrochloride, 100 mg/kg
  Compound 1 Concentration in rat plasma: 36.4 µg/mL and 44.7 µg/mL and 43.2 µg/mL and 45.4 µg/mL
[3]; Female, 1 h post-dose, mono-hydrochloride, 100 mg/kg
  Compound 1 Concentration in rat plasma: 50.1 µg/mL and 63.6 µg/mL and 63.2 µg/mL and 69.7 µg/mL
[3]; Female, 2 h post-dose, mono-hydrochloride, 100 mg/kg
  Compound 1 Concentration in rat plasma: 63.1 µg/mL and 58.9 µg/mL and 60.1 µg/mL and 72.8 µg/mL
[3]; Female, 4 h post-dose, mono-hydrochloride, 100 mg/kg
  Compound 1 Concentration in rat plasma: 14.4 μg/mL (2×) and 31.5 μg/mL and 32.4 μg/mL and 20.4 μg/mL
[3]; Female, 8 h post-dose, mono-hydrochloride, 100 mg/kg
  Compound 1 Concentration in rat plasma: 1.78 µg/mL and 1.80 µg/mL and 4.14 µg/mL and 4.21 µg/mL and 2.23 µg/mL
[3]; Female, 24 h post-dose, mono-hydrochloride, 100 mg/kg
  Compound 1 Concentration in rat plasma: 0.250 µg/mL and 0.240 µg/mL and 0.489 µg/mL and 0.482 µg/mL and 0.428 µg/mL
[3]; Male, 0.5 h post-dose, mono-hydrochloride, 100 mg/kg
  Compound 1 Concentration in rat plasma: 17.5 µg/mL and 14.0 µg/mL and 11.4 µg/mL and 10.8 µg/mL
[3]; Male, 1 h post-dose, mono-hydrochloride, 100 mg/kg
  Compound 1 Concentration in rat plasma: 14.3 µg/mL and 22.6 µg/mL and 14.8 µg/mL and 11.0 µg/mL and 11.8 µg/mL
[3]; Male, 2 h post-dose, mono-hydrochloride, 100 mg/kg
  Compound 1 Concentration in rat plasma: 15.7 µg/mL and 14.0 µg/mL and 14.9 µg/mL and 10.7 µg/mL
[3]; Male, 4 h post-dose, mono-hydrochloride, 100 mg/kg
  Compound 1 Concentration in rat plasma: 4.82 µg/mL and 13.9 µg/mL and 1.56 µg/mL and 6.65 µg/mL and 3.81 µg/mL
[3]; Male, 8 h post-dose, mono-hydrochloride, 100 mg/kg
  Compound 1 Concentration in rat plasma: 2.81 µg/mL and 1.57 µg/mL and 1.53 µg/mL and 3.05 µg/mL
[3]; Male, 24 h post-dose, mono-hydrochloride, 100 mg/kg
  Compound 1 Concentration in rat plasma: 0.157 μg/mL and BQL (3×) and 1.04 μg/mL
[3]; [12]
  concentration at 0.5 h: 40800 ng/mL
  concentration at 2 h: 62600 ng/mL
  concentration at 8 h: 2830 ng/mL
  concentration at 24 h: 378 ng/mL
[3]; [13]
  concentration at 0.5 h: 13500 ng/mL
  concentration at 4 h: 6150 ng/mL
  concentration at 8 h: 2110 ng/mL
  concentration at 24 h: 599 ng/mL
[3]; rat plasma, mono-hydrochloride
  epimerization in vivo (chiral methods): no epimerization; also recorded: did not provide any evidence of epimerization
